From patent US20070025902A1, “RECOVERY OF FLUORINATED CARBOXYLIC ACID FROM ADSORBENT PARTICLES” (priority 2005, published 2007)
Marks after values point to notes of the source that are not given here.

Assay: Determination of bio-accumulation: urinary clearance pharmacokinetic study in rats
Conditions: oral gavage; for Compound-related Effects: clinical signs of toxicity and gross necropsy 96 hours post-dose
[1] = 73 micro Moles per kg body weight
[2] = parent compound recovered in urine after 96 h, 73 micro Moles per kg body weight
[3] = renal elimination half-life of parent compound from urine, 73 micro Moles per kg body weight, exponential least squares curve fitting
[4] = no parent compound in urine, based on elimination of the major metabolite C3F7—O—CHFCOO−, 73 micro Moles per kg

Structure (SMILES)	% Recovery (96 h) [2]	T½ [3]	% Recovery (96 h) [4]	T½ (h) [4]	Compound-related Effects [1]	T½ (h) [3]
N.O=C(O)C(F)(F)C(F)(F)C(F)(F)C(F)(F)C(F)(F)C(F)(F)C(F)(F)F [Compound C-1, C7F15COONH4, reference compound]	6%	–	–	–	Hepatomegaly	˜550 h
N.O=C(O)C(F)(F)OC(F)(F)OC(F)(F)F [Compound 2, CF3—OCF2—O—CF2—COONH4]	96%	12 h	–	–	–	–
N.O=C(O)C(F)(F)C(F)(F)OC(F)(F)C(F)(F)C(F)(F)C(F)(F)F [Compound 9, C4F9—O—CF2—CF2—COONH4]	42%	31 h	–	–	Hepatomegaly	–
N.O=C(O)C(F)(F)C(F)OC(F)(F)C(F)(F)C(F)(F)OC(F)(F)F (centres unmarked) [Compound 11, CF3—O—CF2—CF2—CF2—O—CHF—CF2—COONH4]	84%	12 h	–	–	–	–
N.O=C(O)C(F)(F)OC(F)(F)C(F)(F)C(F)(F)F [Compound 5, C3F7—O—CF2—COONH4]	97%	11 h	–	–	–	–
N.O=C(O)C(F)(F)C(F)(F)OC(F)(F)C(F)(F)F [Compound 7, C2F5—O—CF2—CF2—COONH4]	100%	10 h	–	–	–	–
N.O=C(O)C(F)(F)C(F)(F)OC(F)(F)F [Compound 6, CF3—O—CF2—CF2—COONH4]	100%	11 h	–	–	–	–
N.O=C(O)C(F)(F)OC(F)(F)C(F)(F)C(F)(F)OC(F)(F)F [Compound 4, CF3—(OCF2)3—OCF2—COONH4]	50%	–	–	–	–	–
N.O=C(O)C(F)(F)OC(F)(F)OC(F)(F)OC(F)(F)F [Compound 3, CF3—OCF2—OCF2—OCF2—COONH4]	100%	12 h	–	–	–	–
N.O=C(O)C(F)(F)C(F)(F)OC(F)(F)C(F)(F)C(F)(F)F [Compound 8, C3F7—O—CF2—CF2—COONH4]	82%	12 h	–	–	–	–
N.O=C(O)C(F)(F)OC(F)(F)C(F)(F)OC(F)(F)C(F)(F)F [Compound 10, C2F5—O—CF2—CF2—O—CF2—COONH4]	99%	10 h	–	–	–	–
N.O=C(O)C(F)(F)OC(F)(F)C(F)(F)C(F)(F)OC(F)(F)F [Compound 1, CF3—O—(CF2)3—O—CF2—COONH4]	73%	–	–	–	–	–

Further lines, with some results ahead:

% Recovery (96 h) [2]	T½ [3]	% Recovery (96 h) [4]	T½ (h) [4]	Structure (SMILES)	Compound-related Effects [1]	T½ (h) [3]
5%	95 h	–	–	N.O=C(O)C(F)(F)OC(F)(F)C(F)(OC(F)(F)C(F)(F)C(F)(F)F)C(F)(F)F (centres unmarked) [Compound C-3, CF3CF2CF2OCF(CF3)CF2OCF2COONH4, reference compound]	Hepatomegaly	–
95%	11 h	–	–	N.O=C(O)C(F)OC(F)(F)C(F)(F)C(F)(F)OC(F)(F)F (centres unmarked) [Compound 12, CF3—O—CF2—CF2—CF2—O—CHF—COONH4]	–	–
32%	24 h	–	–	N.O=C(O)C(F)(F)C(F)(F)C(F)(F)C(F)(F)C(F)(F)OC(F)C(F)(F)F (centres unmarked) [Compound 14, CF3—CFH—O—(CF2)5—COONH4]	Hepatomegaly	–
–	–	65* %	13* h	N.O=C(O)COC(F)(F)C(F)OC(F)(F)C(F)(F)C(F)(F)F (centres unmarked) [Compound 16, C3F7—O—CFH—CF2—O—CH2—COONH4]	–	–
95%	8 h	–	–	N.O=C(O)C(F)(F)C(F)(F)C(F)(F)OC(F)C(F)(F)F (centres unmarked) [Compound 15, CF3—CFH—O—(CF2)3—COONH4]	–	–
94%	11 h	–	–	N.O=C(O)C(F)(F)C(F)OC(F)(F)C(F)(F)C(F)(F)F (centres unmarked) [Compound 13, C3F7—O—CFH—CF2COONH4]	–	–
